# Reference: ChEMBL document CHEMBL1153219, “Evaluation of human neutrophil elastase inhibitory effect of iridoid glycosides from Hedyotis diffusa” (Bioorg Med Chem Lett, 2010)
# Molecular target: T1, Neutrophil elastase (Homo sapiens, UniProt P08246)
# T1 sequence (P08246 whole entry): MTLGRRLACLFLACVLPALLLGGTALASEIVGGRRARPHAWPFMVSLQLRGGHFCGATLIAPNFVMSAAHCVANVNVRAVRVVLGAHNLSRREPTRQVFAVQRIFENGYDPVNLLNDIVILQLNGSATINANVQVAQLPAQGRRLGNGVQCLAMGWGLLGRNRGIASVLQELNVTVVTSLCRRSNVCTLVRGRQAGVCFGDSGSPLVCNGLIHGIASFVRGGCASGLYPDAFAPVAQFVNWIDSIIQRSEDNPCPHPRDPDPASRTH
# Assay: Inhibition of human neutrophil elastase
smiles,measurement,value
O=C(O[C@@H]1Cc2c(O)cc(O)cc2O[C@@H]1c1cc(O)c(O)c(O)c1)c1cc(O)c(O)c(O)c1 [EPIGALOCATECHIN GALLATE],IC50,12.8 µM
